Test results reported in patent publication EP2450062A1, “HYDROCOLLOID PLASTERS, INCLUDING VIABLE PROBIOTIC STRAINS OF LACTOBACILLUS SPP. AND USED FOR VARIOUS TYPES OF WOUNDS, INFECTED TISSUES, DRY WOUNDS AND DEEP WOUNDS” (Universidad De Concepcion, priority 2009, dated 2011).

Tested on: Lactobacillus acidophilus LPV 31
Assay: bactericidal effect of glutaraldehyde in the films (bacterial counts)
Settings: GA concentrations studied, in gelatin films
From the text: The cross-linking agent used is preferably, but not exclusively, glutaraldehyde (GA), due to its high efficiency stabilising collagen derivatives, its high reaction rate, and its ability to modify the physico-chemical properties of gelatin-based gels.

With O=CCCCC=O [GA, glutaraldehyde] the bactericidal effect was “do not have an observable bactericidal effect”.
